This note sets out measurements from patent US9233127B2, “Compositions and methods for CXCR4 signaling and umbilical cord blood stem cell engraftment” (University of Virginia Patent Foundation, priority 2012, dated 2016).

Series [1] concerns CXCR4. The series can be described thus: CXCR4 incorporation into membrane lipid rafts of UCB CD34+ HSC. The conditions noted are these: short-term (15-30 min) exposure to C3a. The class given is cell-based, human. How it is done:
FIG. 14—Priming effect depends on inclusion of CXCR4 into membrane lipid rafts. […] comprises three rows and three columns of images of micrographs. Lipid raft formation on normal human UCB-derived CD34^+ cells not stimulated (control) or stimulated with C3a or desArgC3a. For visualization of lipid rafts, CD34^+ cells were fixed in 3.7% paraformaldehyde/Ca- and Mg-free PBS for 15 min and permeabilized by Triton X-100 in PBS for 5 min at room temperature (RT). The primary antibodies used for raft analysis are cholera toxin B-subunit conjugated with Fluorescein Isothiocyanate (FITC) (Sigma Aldrich, St. Louis, Mo.) and mouse monoclonal anti-hCXCR4 immunoglobulin (Ig)G (R&D Systems, Minneapolis, Minn.). After rinsing in phosphate-buffered saline (PBS), the sections were incubated with Alexa Fluor 568 goat anti-mouse IgG (Molecular Probes, Eugene, Oreg.) for 45 min.

The test system of series [2] is Sca-1+ cells. The series can be described thus: Hematopoietic recovery of lethally irradiated mice given C3a primed Sca-1+ cells. Format: in vivo. From the text:
FIG. 6A-B—Sca-1^+ Cells Primed with C3a Engraft Faster in Lethally Irradiated Mice. 6A—left panel; 6B—right panel.

Series [3] relates to human umbilical vein endothelial cells. The series can be described thus: Adhesion of UCB CD34+ cells to endothelial cells. Format: cell-based.
The subject of series [4] is UCB CD34+ cells. Kind of series: Actin polymerization in CD34+ cells. The class given is cell-based, human. Conditions: in the presence of C3a. From the text: Exposure of UCB CD34^+ cells to a low dose of SDF-1 promotes actin polymerization which is enhanced by the presence of C3a.
(§1) In another set of experiments, we attempted to elucidate the molecular mechanisms by which C3a enhances the responsiveness of hematopoietic cells to an SDF-1 gradient. […] However, we observed that actin polymerization of CD34^+ cells to a low dose of SDF-1 was enhanced in the presence of C3a.

Series [5] concerns CXCR4. Kind of series: FACS analysis of CXCR4 expression on BM or UCB CD34+ cells. Conditions: 0, 12, and 24 hrs. Set-up: dose or concentration left out as unconfirmed. Format: cell-based, human.
Text: as §1

[6] abbreviates: C3a primed hematopoietic progenitors.

Entries after “also recorded” stand apart in the source; their conditions may differ.

Take “C3a: 77 amino acid residue protein derived from the human complement C3a precursor; SEQ ID NO:1”: in series [1], the “CXCR4 incorporation into membrane lipid rafts” value was “enhances CXCR4 incorporation”. Further, in series [2] (setting [6]), the “faster rate of leukocyte recovery relative to untreated mice” value was determined as 5 days and the platelet counts entry was “benefit in platelet counts”. The “infusional toxicity and coagulopathy” value in series [2] (murine studies) was “neither infusional toxicity nor evidence of coagulopathy was observed”. Moreover, the “adhesion of UCB CD34+ cells to human umbilical vein endothelial cells” value in series [3] (C3a) was “increases adhesion”. Moreover, in series [3] (combination of C3a priming and SDF-1), the “adhesion of CD34+ cells” value is “only to a slight increase”. In addition, the “actin polymerization of CD34+ cells to a low dose of SDF-1” value in series [4] is on record as “enhanced”. Also, the “CXCR4 expression after C3a exposure” value in series [5] was “not enhanced; also recorded: negative results”.
